Results: patent US20230027066A1 (Urovant Sciences GmbH, priority 2019, published 2023)

Tests used:
[1] = system: men and women with overactive bladder; experiment: 40-week extension study (52 weeks), efficacy; assay type: in vivo, human; details: for UUI Episodes 75% Responders at Week 52 / UUI Episodes 100% Responders at Week 52 / Urgency Episodes 50% Responders at Week 52: multiple imputation
From the text: All CFB calculations used the parent study Baseline value.

[2] = system: men and women with overactive bladder; experiment: extension study, OAB-q LF coping subscore at Week 52; assay type: in vivo, human; details: for OAB-q LF Coping Subscore, Week 52 Mean: Full Analysis Set Extension; for OAB-q LF Coping Subscore, Change from Baseline Mean at Week 52: baseline from parent study
[3] = From the text: A placebo group was included in the main study, and a group that received tolterodine monotherapy was included in the main study and in the extension.
[4] = 40-Week treatment group, Full Analysis Set Extension
[5] = 52-Week treatment group, Full Analysis Set Extension

Structure (SMILES): Cc1ccc(O)c([C@H](CCN(C(C)C)C(C)C)c2ccccc2)c1 [Tolterodine ER, tolterodine, reference compound]
- Micturitions, Change from Baseline at Week 52, Mean ([1]; 40-Week arm): −2.6
- UUI Episodes, Change from Baseline at Week 52, Mean ([1]; 40-Week arm): −1.5
- UUI Episodes, Week 52 Mean ([1]; 40-Week arm): 1.1
- Urgency Episodes, Change from Baseline at Week 52, Mean ([1]; 40-Week arm): −3.5
- Urgency Episodes, Week 52 Mean ([1]; 40-Week arm): 3.9
- Micturitions, Week 52 Mean ([1]; 40-Week arm, Full Analysis Set Extension): 8.8
- Total urinary incontinence episodes, Change from Baseline Mean at Week 52 [1, 4]: −1.9
- Total urinary incontinence episodes, Week 52 Mean [1, 4]: 1.2
- UUI Episodes 75% Responders at Week 52 ([1]; 40-Week treatment group): 54.0%
- UUI Episodes 100% Responders at Week 52 ([1]; 40-Week treatment group): 37.8%
- Urgency Episodes 50% Responders at Week 52 ([1]; 40-Week treatment group): 50.1%
- Micturitions, Change from Baseline at Week 52, Mean ([1]; 52-Week arm): −2.3
- UUI Episodes, Change from Baseline at Week 52, Mean ([1]; 52-Week arm): −1.7
- UUI Episodes, Week 52 Mean ([1]; 52-Week arm): 1.4
- Urgency Episodes, Change from Baseline at Week 52, Mean ([1]; 52-Week arm): −3.5
- Urgency Episodes, Week 52 Mean ([1]; 52-Week arm): 4.7
- Micturitions, Week 52 Mean ([1]; 52-Week arm, Full Analysis Set Extension): 9.0
- Total urinary incontinence episodes, Change from Baseline Mean at Week 52 [1, 5]: −2.0
- Total urinary incontinence episodes, Week 52 Mean [1, 5]: 1.7
- UUI Episodes 75% Responders at Week 52 ([1]; 52-Week treatment group): 54.4%
- UUI Episodes 100% Responders at Week 52 ([1]; 52-Week treatment group): 34.2%
- Urgency Episodes 50% Responders at Week 52 ([1]; 52-Week treatment group): 51.0%
- UUI Episodes, Change from Baseline LS Mean (SE) at Week 52 ([1]; 52-Weeks arm, Full Analysis Set Extension for Incontinence): −1.7 (0.17)
- Micturitions, Change from Baseline LS Mean (SE) at Week 52 ([1]; 52-Weeks arm, mixed model for repeated measures): −2.0 (0.26)
- Urgency episodes, Change from Baseline LS Mean (SE) at Week 52 ([1]; 52-Weeks treatment, Full Analysis Set Extension): −3.2 (0.37)
- Total urinary incontinence episodes, Change from Baseline LS Mean (SE) at Week 52 ([1]; 52-Weeks treatment, Full Analysis Set Extension for Incontinence): −1.9 (0.19)
- % Responders, 50% Reduction in Total Inc at Week 52 ([1]; 52-week treatment, Table 97): 62%
- % Responders, 50% Reduction in UE at Week 52 ([1]; 52-week treatment, Table 97): 51%
- % Responders, 75% Reduction in UUI at Week 52 ([1]; 52-week treatment, Table 97): 54%
- % Responders, 100% Reduction in UUI at Week 52 ([1]; 52-week treatment, Table 97): 34%
- Micturitions, Least Squares Means CFB at Week 52 ([1]; 52-week treatment, Table 97): −2.0
- Total Incontinence Episodes, Least Squares Means CFB at Week 52 ([1]; 52-week treatment, Table 97): −1.9
- UUI Episodes, Least Squares Means CFB at Week 52 ([1]; 52-week treatment, Table 97): −1.7
- Urgency Episodes (UE), Least Squares Means CFB at Week 52 ([1]; 52-week treatment, Table 97): −3.2
- Volume Voided, mean change from baseline at Week 52 ([1]; 52-week treatment, Table 97): 9 mL
- OAB-q LF Coping Subscore, Week 52 Mean ([2]; 40-Week treatment group): 82.5
- OAB-q LF Coping Subscore, Change from Baseline Mean at Week 52 ([2]; 40-Week treatment group): 24.7
- OAB-q LF Coping Subscore, Week 52 Mean ([2]; 52-Week treatment group): 81.8
- OAB-q LF Coping Subscore, Change from Baseline Mean at Week 52 ([2]; 52-Week treatment group): 22.1
- frequency of injuries ([3]; Phase 2 study, tolterodine arm vs vibegron): 2.1%
- SAEs reported in treatment group, number ([3]; tolterodine 4 mg, main study): 3
- Accidental overdose ([3]; tolterodine ER 4 mg): 6 (2.3) n (%)
- Alanine aminotransferase increased ([3]; tolterodine ER 4 mg): 1 (0.4) n (%)
- Arthralgia ([3]; tolterodine ER 4 mg): 3 (1.2) n (%)
- Aspartate aminotransferase increased ([3]; tolterodine ER 4 mg): 0 (0.0) n (%)
- Constipation ([3]; tolterodine ER 4 mg): 5 (1.9) n (%)
- Diarrhea ([3]; tolterodine ER 4 mg): 9 (3.5) n (%)
- Discontinuation due to AE ([3]; tolterodine ER 4 mg): 4 (1.6) n (%)
- Discontinuation due to drug-related AE ([3]; tolterodine ER 4 mg): 0 n (%)
- Dizziness ([3]; tolterodine ER 4 mg): 5 (1.9) n (%)
- Drug-related AE ([3]; tolterodine ER 4 mg): 42 (16.3) n (%)
- Dry eye ([3]; tolterodine ER 4 mg): 10 (3.9) n (%)
- Dry mouth ([3]; tolterodine ER 4 mg): 22 (8.6) n (%)
- Dysuria ([3]; tolterodine ER 4 mg): 3 (1.2) n (%)
- Fatigue ([3]; tolterodine ER 4 mg): 6 (2.3) n (%)
- Headache ([3]; tolterodine ER 4 mg): 9 (3.5) n (%)
- Nasopharyngitis ([3]; tolterodine ER 4 mg): 4 (1.6) n (%)
- Nausea ([3]; tolterodine ER 4 mg): 6 (2.3) n (%)
- Osteoarthritis ([3]; tolterodine ER 4 mg): 0 (0.0) n (%)
- Pain in extremity ([3]; tolterodine ER 4 mg): 1 (0.4) n (%)
- Serious AE ([3]; tolterodine ER 4 mg): 3 (1.2) n (%)
